Like-named read-outs stand apart in the source and are kept apart here.
Assays:
[1] = system: Champions Tumor Graft models CTG-1171; conditions: cited from earlier work
[2] = system: Champions Tumor Graft models CTG-1171; assay: Anti-tumor effect using cancer patient-derived cells (CTG-1171 PDX, Test Example 2); assay type: in vivo, nude mice (Athymic Nude-Foxn1nu)
Description: Champions Tumor Graft models CTG-1171 (Champions Oncology, Inc.) having the profiles shown in Tables 5-8 were transplanted into Stock mice (Athymic Nude-Foxn1^nu, Envigo). Once the tumor volume of the transplanted tumor reached 1,000-1,500 mm^3, the tumor was taken out and a fragment thereof of about 65 mm^3 was subcutaneously transplanted into the left side of 7-week-old nude mice (Athymic Nude-Foxn1^nu, Envigo). Tumor diameters were measured twice a week with a digital caliper. TV was calculated according to the following equation. TV (mm^3)=Width (mm)^2×Length (mm)×0.52
Ten individuals whose tumor volumes reached 150-300 mm^3 were assigned to each group (Day 0).
(§1) Compound 1 was prepared to have a predetermined concentration with a 0.1N HCl solution, and the resultant was orally administered once a day on Days 0-27 consecutively. Tumor diameters were measured twice a week with a digital caliper. The rate of change in the weight of the mouse was calculated in the same manner as Test example 1 above. Mice observed with weight loss by 10% or more as compared to Day 0 were given DietGel (registered trademark).
The anti-tumor effect of the drug was evaluated according to tumor growth inhibition (TGI), which was calculated by the following equation. TGI=(100%×[1−(TV of treated group on Day 27−TV of treated group on Day 0)/(TV of control group on Day 27−TV of control group on Day 0)])

[3] = system: Human stomach cancer cell line, NCI-N87; assay: Antitumor evaluation in model with tumor recurrence following administration of trastuzumab emtansine (NCI-N87 subcutaneous xenograft); assay type: in vivo, nude mice (BALB/cAJcl-nu/nu); conditions: for TV (mm^3) on Day43 Mean ± SD: Step 2, Day 43, Compound 1 60 mg/kg/day p.o. Days 1-42, trastuzumab emtansine 10 mg/kg/day i.v. Days 1, 22, n=9
Description: Human stomach cancer cell line, NCI-N87, was obtained from American Type Culture Collection (ATCC). The cell line was cultured in a RPMI-1640 medium (containing 4.5 g/L glucose, 10 mM HEPES and 1 mM sodium pyruvate) (Wako Pure Chemical Corporation) containing 10% fetal bovine serum (FBS) at 37° C. in a 5% CO2 incubator.
The NCI-N87 cells were resuspended in PBS to a concentration of 10^8 cells/mL. A 1-mL tuberculin syringe with a 25G needle was used to subcutaneously transplant […] cells/0.1 mL each of the cell suspension into the right chests of 6-week-old nude mice (BALB/cAJcl-nu/nu, CLEA Japan, Inc.).
The tumor diameter was measured with a digital caliper by holding the long diameter and the short diameter of the tumor between the measuring surfaces of the digital caliper for each mouse. Measurements took place at a frequency of once in 2-5 days including the day of group sorting and the day of judgement. The tumor volume (TV) was calculated based on these long and short diameters. The relative tumor volume (RTV) and the rate of change in the relative tumor volume (T/C) were calculated from the calculated tumor volume. TV, RTV and T/C were calculated according to the following equations. Tumor volume TV(mm^3)=(Long diameter, mm)×(Short diameter, mm)×(Short diameter, mm)/2 Relative tumor volume RTV=(TV on day of measurement)/(TV on day of dividing into groups) Rate of change in relative tumor volume T/C (%)=(Mean RTV of treated group)/(Mean RTV of control group)×100
The tumor diameters and weights were measured with time to calculate TV and BWC.
Eighteen nude mice confirmed with tumor recurrence in Step 1 were selected, and 9 animals were assigned to each group by equal distribution (MiSTAT (ver.2.0)) as follows such that the mean TV of each group was uniform (Day 1, i.e., Day 85 as counted from Step 1). Compound 1 was prepared to 6 mg/mL with a 0.1N HCl solution, and the resultant was orally administered once a day on Days 1-42 consecutively. […] The tumor diameters and weights were measured with time to calculate TV and BWC.

[4] = Body weight change / toxicity judgement in CTG-1171 PDX model (Test Example 2); assay type: in vivo; conditions: 60 mg/kg/day p.o. Days 0-27
Description: as §1
In addition, the presence of toxicity was judged as follows: a dose observed with a weight loss of 20% or more or a mortality rate of 10% or more was judged to have exceeded the MTD (maximum tolerated dose) and thus toxicity was present.

[5] = system: Breast cancer (primary), HER2 +; conditions: single patient; neighbouring lines without a result appear to be partners of the same regimen; cited from earlier work
[6] = value on first line of a two-line group (apparent combination): Capecitabine 5 with Lapatinib 1 mg/kg/day, once a day for 21 days p.o., Gemcitabine with Nab-paclitaxel, dose not given

Compound: CCCCCOC(=O)Nc1nc(=O)n([C@@H]2O[C@H](C)[C@@H](O)[C@H]2O)cc1F [Capecitabine]
- TGI (%) [1, 6]: 96%

Compound: C=CC(=O)N1CCC[C@@H](n2nc(C(=O)Nc3ccc(CC(=O)N(C)C)c(C)c3C)c3c(N)ncnc32)C1 [Compound 1, (R)-1-(1-acryloylpiperidine-3-yl)-4-amino-N-(4-(2-(dimethylamino)-2-oxoethyl)-2,3-dimethylphenyl)-1H-pyrazolo[3,4-d]pyrimidine-3-carboxamide]
- TV versus control-administered group on Day 27 ([2]; 60 mg/kg/day p.o. Days 0-27): significantly lower
- TV (mm^3) on Day0 Mean ± SD ([2]; Day 0 (group assignment, baseline), n=10): 196 ± 22 mm^3
- TV (mm^3) on Day27 Mean ± SD ([2]; Day 27, 60 mg/kg/day p.o. Days 0-27, n=10): 162 ± 27 mm^3
- TGI (%) ([2]; Day 27 versus Day 0, versus control, 60 mg/kg/day p.o. Days 0-27): 112%
- TV versus trastuzumab emtansine-administered group on day of judgement (Day 43) ([3]; Aspin-Welch's t-test, Compound 1 60 mg/kg/day p.o.): significantly lower
- T/C (%) ([3]; Day 43, mean TV of Compound 1 group / mean TV of trastuzumab emtansine group × 100, 60 mg/kg/day p.o. Days 1-42): 25.4%
- TV (mm^3) on Day43 Mean ± SD [3]: 107.29 ± 37.76 mm^3
- decrease of average rate of change in the weight during the administration period [4]: < 5%
- judgement of the dose (tolerability) [4]: tolerable
- BWG(%) on Day27 Mean ([4]; Day 27): −0.60%

Compound: CC(=O)O[C@@]12CO[C@@H]1C[C@H](O)[C@@]1(C)C(=O)[C@H](O)C3=C(C)[C@@H](OC(=O)[C@H](O)[C@@H](NC(=O)OC(C)(C)C)c4ccccc4)C[C@@](O)([C@@H](OC(=O)c4ccccc4)[C@H]21)C3(C)C [Docetaxel]
- Result (treatment history before acquiring tumor tissue) [5]: Responded

Compound: C=C1C[C@@H]2CC[C@@]34C[C@H]5O[C@H]6[C@@H](O3)[C@H]3O[C@H](CC[C@@H]3O[C@H]6[C@H]5O4)CC(=O)C[C@@H]3[C@@H](OC)[C@@H](C[C@H](O)CN)O[C@H]3C[C@H]3O[C@@H](CC[C@@H]1O2)C[C@@H](C)C3=C [Eribulin]
- Result (treatment history after acquiring tumor tissue) [5]: No response

Compound: Nc1ccn([C@@H]2O[C@H](CO)[C@@H](O)C2(F)F)c(=O)n1 [Gemcitabine]
- TGI (%) [1, 6]: 28%

Compound: CS(=O)(=O)CCNCc1ccc(-c2ccc3ncnc(Nc4ccc(OCc5cccc(F)c5)c(Cl)c4)c3c2)o1 [Lapatinib]
- Result (treatment history after acquiring tumor tissue) [5]: No response

Compound: CO[C@H]1C[C@@H]2CC[C@@H](C)[C@@](O)(O2)C(=O)C(=O)N2CCCC[C@H]2C(=O)O[C@H]([C@H](C)C[C@@H]2CC[C@@H](OC(=O)C(C)(CO)CO)[C@H](OC)C2)CC(=O)[C@H](C)/C=C(\C)[C@@H](O)[C@@H](OC)C(=O)[C@H](C)C[C@H](C)/C=C/C=C/C=C/1C [Temsirolimus]
- TGI (%) ([1]; single agents, Nab-paclitaxel 0.5 mg/kg/day once a week for 3 weeks i.v., Temsirolimus 0.5 once a week for 5 weeks i.p., Trastuzumab 15 once a week for 8 weeks i.v., Afatinib dose not given): 59%

Compound: Bevacizumab
- Result (treatment history before acquiring tumor tissue) [5]: No response

Compound: Trastuzumab emtansine
- Result (treatment history after acquiring tumor tissue) [5]: No response
- Result (treatment history before acquiring tumor tissue) [5]: No response
- tumor course after administration of trastuzumab emtansine (FIG. 1) ([3]; Step 1, 10 mg/kg/day i.v. on Days 1, 22, 43, 64, n=36): tumor shrinkage was confirmed for once by administration of trastuzumab emtansine but tumor recurrence was confirmed on Day 85
- TV (mm^3) on Day43 Mean ± SD [3]: 421.92 ± 143.78 mm^3

Source: patent publication US12186320B2, “Therapeutic agent containing pyrazolo[3,4-d]pyrimidine compound as active ingredient” (TAIHO PHARMACEUTICAL CO., LTD., priority 2018, dated 2025)
